Data as given in ChEMBL document CHEMBL1201862, “PubChem BioAssay data set” (2004).
Active and inactive are the calls of the source.

Key:
[1] = biological target: T1, Sphingosine 1-phosphate receptor 4 (Homo sapiens, UniProt O95977); test: Fluorescence dose response cell-based high throughput screening assay for antagonists of the Sphingosine 1-Phosphate Receptor 4 (S1P4). [Related pubchem assays: 1524 (Confirmation in triplicates.), 1510 (Primary screen.)]; assay type: functional
T1 sequence (O95977 whole entry): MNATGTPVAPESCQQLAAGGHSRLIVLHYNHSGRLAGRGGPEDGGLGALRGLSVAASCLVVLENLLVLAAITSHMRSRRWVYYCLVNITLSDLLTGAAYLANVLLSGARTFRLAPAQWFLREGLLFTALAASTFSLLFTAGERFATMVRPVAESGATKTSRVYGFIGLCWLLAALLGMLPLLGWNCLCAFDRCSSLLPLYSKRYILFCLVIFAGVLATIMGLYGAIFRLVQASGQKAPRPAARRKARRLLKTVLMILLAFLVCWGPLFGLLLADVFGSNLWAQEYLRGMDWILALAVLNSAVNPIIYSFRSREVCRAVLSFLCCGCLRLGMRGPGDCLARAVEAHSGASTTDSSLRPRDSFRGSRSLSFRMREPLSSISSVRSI

Prothrombin = Prothrombin (Homo sapiens, UniProt P00734); test: Thrombin 1536 HTS Dose Response Confirmation. [Related pubchem assays: 1046 (Thrombin 1536 HTS; hits were confirmed in this assay)]; assay type: functional
Protein RecA = biological target: T2, Protein RecA (Mycobacterium tuberculosis, UniProt P9WHJ3); test: Fluorescence Cell-Free Homogeneous Dose Retest to Identify Inhibitors of RecA-Intein Splicing Activity. [Related pubchem assays (depositor defined):AID2097, AID2223, AID489010, AID492950]; assay type: functional
T2 sequence (P9WHJ3 whole entry): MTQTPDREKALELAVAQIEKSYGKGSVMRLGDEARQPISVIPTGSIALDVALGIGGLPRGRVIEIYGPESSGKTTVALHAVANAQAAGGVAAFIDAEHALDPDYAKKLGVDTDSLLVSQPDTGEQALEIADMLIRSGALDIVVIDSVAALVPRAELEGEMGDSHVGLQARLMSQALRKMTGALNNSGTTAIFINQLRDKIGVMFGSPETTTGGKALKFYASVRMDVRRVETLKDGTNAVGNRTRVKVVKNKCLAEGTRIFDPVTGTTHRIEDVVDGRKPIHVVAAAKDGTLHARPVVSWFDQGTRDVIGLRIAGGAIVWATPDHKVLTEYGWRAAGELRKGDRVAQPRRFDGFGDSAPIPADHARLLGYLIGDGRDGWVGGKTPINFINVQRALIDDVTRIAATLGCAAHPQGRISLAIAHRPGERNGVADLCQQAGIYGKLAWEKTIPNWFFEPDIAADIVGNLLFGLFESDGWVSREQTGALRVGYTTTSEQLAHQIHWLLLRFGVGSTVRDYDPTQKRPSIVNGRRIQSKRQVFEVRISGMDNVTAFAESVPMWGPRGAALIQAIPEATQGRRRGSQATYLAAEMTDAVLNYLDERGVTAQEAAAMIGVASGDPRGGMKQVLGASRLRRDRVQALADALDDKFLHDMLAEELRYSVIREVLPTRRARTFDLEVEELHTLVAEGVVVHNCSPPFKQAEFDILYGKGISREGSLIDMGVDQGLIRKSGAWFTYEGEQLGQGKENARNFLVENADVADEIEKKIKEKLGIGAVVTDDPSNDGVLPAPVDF

[2] = Luminescent dose response cell-based high throughput screening assay for inhibitors of the Janus kinase 2 mutant JAK2V617F. [Related pubchem assays: 1446 (Primary screen.), 1521 (Confirmation assay.), 1486 (Counter screen.)]; assay type: functional
[3] = biological target: T3, Replicative DNA helicase DnaB (Mycobacterium tuberculosis, UniProt P9WMR3); test: DnaB intein splicing inhibitors, dose response, biochemical, cell-free fluorescence (AID 449749); assay type: functional
T3 sequence (P9WMR3 whole entry): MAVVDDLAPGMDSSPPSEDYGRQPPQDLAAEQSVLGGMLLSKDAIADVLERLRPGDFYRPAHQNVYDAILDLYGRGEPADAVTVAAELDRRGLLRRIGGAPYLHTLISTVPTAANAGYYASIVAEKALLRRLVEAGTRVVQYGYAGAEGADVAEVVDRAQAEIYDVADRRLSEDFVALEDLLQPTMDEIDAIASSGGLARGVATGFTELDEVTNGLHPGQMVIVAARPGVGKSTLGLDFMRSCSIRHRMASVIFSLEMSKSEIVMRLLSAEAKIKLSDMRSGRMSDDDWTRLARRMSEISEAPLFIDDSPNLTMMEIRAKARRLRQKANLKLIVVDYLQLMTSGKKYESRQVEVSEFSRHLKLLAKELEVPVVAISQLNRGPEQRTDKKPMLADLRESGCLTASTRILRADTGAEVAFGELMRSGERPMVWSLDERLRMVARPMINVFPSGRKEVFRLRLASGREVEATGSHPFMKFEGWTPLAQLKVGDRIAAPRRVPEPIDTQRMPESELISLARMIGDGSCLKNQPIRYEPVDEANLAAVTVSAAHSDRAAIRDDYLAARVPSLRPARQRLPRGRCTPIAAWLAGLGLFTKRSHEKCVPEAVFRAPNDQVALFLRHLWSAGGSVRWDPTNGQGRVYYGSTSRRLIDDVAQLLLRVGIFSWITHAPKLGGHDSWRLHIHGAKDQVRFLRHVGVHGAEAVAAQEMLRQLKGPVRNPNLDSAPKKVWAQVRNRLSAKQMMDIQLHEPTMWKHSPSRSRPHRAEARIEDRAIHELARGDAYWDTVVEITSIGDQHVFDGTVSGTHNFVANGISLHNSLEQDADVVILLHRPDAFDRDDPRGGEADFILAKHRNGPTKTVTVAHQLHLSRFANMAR

[4] = biological target: Sphingosine 1-phosphate receptor 1 (Homo sapiens, UniProt P21453); assay type: functional;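 also: Tango beta-arrestin reporter U2OS cells stimulated with S1P near its EC80; inhibitor potency meaning antagonism of receptor activation by the natural agonist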
Sphingosine 1-phosphate receptor 1, sequence (P21453 whole entry): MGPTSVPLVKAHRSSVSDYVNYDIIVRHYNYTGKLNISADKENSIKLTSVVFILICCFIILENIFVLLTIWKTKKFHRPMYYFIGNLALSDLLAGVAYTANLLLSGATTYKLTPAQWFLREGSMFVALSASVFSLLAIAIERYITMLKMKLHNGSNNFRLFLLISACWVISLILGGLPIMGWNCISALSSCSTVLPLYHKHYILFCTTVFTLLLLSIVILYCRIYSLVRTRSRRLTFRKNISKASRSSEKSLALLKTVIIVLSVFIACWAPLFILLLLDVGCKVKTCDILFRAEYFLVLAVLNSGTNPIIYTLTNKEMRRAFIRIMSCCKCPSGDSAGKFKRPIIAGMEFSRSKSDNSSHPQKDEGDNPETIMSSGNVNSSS

Procathepsin L = Procathepsin L (Homo sapiens, UniProt P07711); test: CTSL1 protease inhibition – biochemical, QFRET, 1536-well, counter-screen for M1/M17 aminopeptidase inhibitor project, dose response (AID 2214)
Procathepsin L, sequence (P07711 whole entry): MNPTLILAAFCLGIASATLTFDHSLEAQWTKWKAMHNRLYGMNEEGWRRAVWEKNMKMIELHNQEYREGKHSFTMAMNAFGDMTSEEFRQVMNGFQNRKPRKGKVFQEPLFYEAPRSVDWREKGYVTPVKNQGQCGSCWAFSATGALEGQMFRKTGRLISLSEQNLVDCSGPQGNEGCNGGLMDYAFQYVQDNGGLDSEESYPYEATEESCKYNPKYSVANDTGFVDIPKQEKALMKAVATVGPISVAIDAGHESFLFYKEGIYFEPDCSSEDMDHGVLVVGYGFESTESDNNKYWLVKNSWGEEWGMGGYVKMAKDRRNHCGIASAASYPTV

Aspartyl aminopeptidase = biological target: T4, Aspartyl aminopeptidase (Plasmodium falciparum 3D7, UniProt Q8I2J3); test: Counterscreen for inhibitors of M1 and M17 aminopeptidases: QFRET-based biochemical high throughput dose response assay for inhibitors of the Plasmodium falciparum M18 Aspartyl Aminopeptidase (PFM18AAP). [Related PubChem assays: 1619 (Screening assay (M17LAP inhibitors).), 1445 (Screening assay (M1AAP inhibitors).)]
T4 sequence (Q8I2J3 whole entry): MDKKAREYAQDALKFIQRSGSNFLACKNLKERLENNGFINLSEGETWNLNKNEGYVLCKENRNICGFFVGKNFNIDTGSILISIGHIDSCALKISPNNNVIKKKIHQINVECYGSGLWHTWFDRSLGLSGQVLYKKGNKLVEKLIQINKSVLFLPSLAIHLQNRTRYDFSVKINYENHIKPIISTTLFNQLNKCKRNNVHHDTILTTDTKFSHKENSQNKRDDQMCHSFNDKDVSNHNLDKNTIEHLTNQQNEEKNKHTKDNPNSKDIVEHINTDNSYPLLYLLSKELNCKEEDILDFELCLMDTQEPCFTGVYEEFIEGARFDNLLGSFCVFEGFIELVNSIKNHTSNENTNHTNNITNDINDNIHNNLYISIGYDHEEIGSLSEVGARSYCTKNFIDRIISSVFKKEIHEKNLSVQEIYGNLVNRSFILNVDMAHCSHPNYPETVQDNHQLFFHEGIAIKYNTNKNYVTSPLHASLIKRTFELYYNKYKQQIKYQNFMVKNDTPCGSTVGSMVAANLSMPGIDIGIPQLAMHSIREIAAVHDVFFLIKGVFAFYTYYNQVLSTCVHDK

Leucine aminopeptidase = biological target: T5, Leucine aminopeptidase (Plasmodium falciparum 3D7, UniProt Q8IL11); test: P. falciparum M17LAP inhibitors, primary screen, biochemical, fluorogenic H-Leu-NHMec substrate, 1536-well (AID 1619); assay type: functional
T5 sequence (Q8IL11 whole entry): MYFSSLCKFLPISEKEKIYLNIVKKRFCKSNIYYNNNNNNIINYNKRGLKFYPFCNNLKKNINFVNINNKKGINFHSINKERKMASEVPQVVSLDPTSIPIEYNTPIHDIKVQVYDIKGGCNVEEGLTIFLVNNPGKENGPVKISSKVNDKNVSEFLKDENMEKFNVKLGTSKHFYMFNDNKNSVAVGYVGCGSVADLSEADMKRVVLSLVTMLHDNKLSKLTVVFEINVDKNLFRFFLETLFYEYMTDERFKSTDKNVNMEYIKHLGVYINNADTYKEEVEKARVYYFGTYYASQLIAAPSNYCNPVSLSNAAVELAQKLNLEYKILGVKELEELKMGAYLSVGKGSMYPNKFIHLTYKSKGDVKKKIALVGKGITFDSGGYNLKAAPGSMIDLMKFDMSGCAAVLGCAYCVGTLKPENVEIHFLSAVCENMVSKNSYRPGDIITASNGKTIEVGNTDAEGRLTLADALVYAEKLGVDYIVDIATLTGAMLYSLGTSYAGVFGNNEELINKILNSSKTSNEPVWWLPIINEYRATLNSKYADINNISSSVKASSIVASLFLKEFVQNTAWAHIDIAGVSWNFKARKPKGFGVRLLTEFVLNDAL

[5] = Luminescence Cell-Based Dose Confirmation to Identify Activators of 5'UTR Stem-Loop Driven Alpha-Synuclein mRNA Translation in H4 Neuroglioblastoma Cells. [Related pubchem assays: 1829 (Project Summary), 1814 (Primary HTS)]; assay type: functional
[6] = Luminescence Cell-Based Dose Response to Identify Activators of 5'UTR Stem-Loop Driven Prion Protein mRNA Translation in H4-C Neuroglioblastoma Cells. [Related pubchem assays: 1829 (Project Summary), 1814 (Primary HTS)]; assay type: functional
[7] = Luminescence Cell-Based Dose Response HTS to Identify Activators of Luciferase Translation or Activity in H4 […] Cells. [Related pubchem assays: 1829 (Project Summary), 1814 (Primary HTS)]; assay type: functional
[8] = Luminescence Cell-Based Dose Confirmation HTS to Identify Activators of 5'UTR Stem-Loop Driven Alpha-Synuclein mRNA Translation in H4 Neuroglioblastoma Cells. [Related pubchem assays: 1829 (Project Summary), 1814 (Primary HTS)]; assay type: functional
H4 = test: Luminescence Cell-Based Dose Response HTS to Identify Activators of 5'UTR Stem-Loop Driven Prion Protein mRNA Translation in H4 Neuroglioblastoma Cells. [Related pubchem assays: 1829 (Project Summary), 1814 (Primary HTS)]; assay type: functional; details: Homo sapiens
[9] = Luminescence Cell-Based Dose Response to Identify Activators of Luciferase Translation or Activity in H4-C Neuroglioblastoma Cells. [Related pubchem assays: 1829 (Project Summary), 1814 (Primary HTS)]; assay type: functional
[10] = biological target: Lytic switch protein BZLF1 (Epstein-Barr virus (strain B95-8) (HHV-4) (Human herpesvirus 4), UniProt P03206); test: inhibition of BZLF1 ZTA DNA binding – biochemical, fluorescence polarization, Epstein-Barr virus, 1536-well, counter-screen for EBNA-1 inhibitor project, dose response (AID 2377); parameters: species or system human gammaherpesvirus 4;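 also: fluorescence polarization of Cy5-labelled ZRE DNA probe bound by purified Zta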
Lytic switch protein BZLF1, sequence (P03206 whole entry): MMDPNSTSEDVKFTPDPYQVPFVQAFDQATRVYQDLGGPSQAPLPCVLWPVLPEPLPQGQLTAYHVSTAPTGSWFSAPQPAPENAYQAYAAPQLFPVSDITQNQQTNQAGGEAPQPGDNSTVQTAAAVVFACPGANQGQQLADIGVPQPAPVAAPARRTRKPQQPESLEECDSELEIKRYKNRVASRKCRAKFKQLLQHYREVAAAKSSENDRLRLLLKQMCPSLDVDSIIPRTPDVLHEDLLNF

[11] = biological target: Epstein-Barr nuclear antigen 1 (Epstein-Barr virus (strain B95-8) (HHV-4) (Human herpesvirus 4), UniProt P03211); test: inhibition of EBV nuclear antigen 1 DNA binding – biochemical, fluorescence polarization, 1536-well, dose response (AID 2381); parameters: species or system human gammaherpesvirus 4;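 also: fluorescence polarization of a Cy5 DNA probe bound by EBNA-1 protein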
Epstein-Barr nuclear antigen 1, sequence (P03211 whole entry): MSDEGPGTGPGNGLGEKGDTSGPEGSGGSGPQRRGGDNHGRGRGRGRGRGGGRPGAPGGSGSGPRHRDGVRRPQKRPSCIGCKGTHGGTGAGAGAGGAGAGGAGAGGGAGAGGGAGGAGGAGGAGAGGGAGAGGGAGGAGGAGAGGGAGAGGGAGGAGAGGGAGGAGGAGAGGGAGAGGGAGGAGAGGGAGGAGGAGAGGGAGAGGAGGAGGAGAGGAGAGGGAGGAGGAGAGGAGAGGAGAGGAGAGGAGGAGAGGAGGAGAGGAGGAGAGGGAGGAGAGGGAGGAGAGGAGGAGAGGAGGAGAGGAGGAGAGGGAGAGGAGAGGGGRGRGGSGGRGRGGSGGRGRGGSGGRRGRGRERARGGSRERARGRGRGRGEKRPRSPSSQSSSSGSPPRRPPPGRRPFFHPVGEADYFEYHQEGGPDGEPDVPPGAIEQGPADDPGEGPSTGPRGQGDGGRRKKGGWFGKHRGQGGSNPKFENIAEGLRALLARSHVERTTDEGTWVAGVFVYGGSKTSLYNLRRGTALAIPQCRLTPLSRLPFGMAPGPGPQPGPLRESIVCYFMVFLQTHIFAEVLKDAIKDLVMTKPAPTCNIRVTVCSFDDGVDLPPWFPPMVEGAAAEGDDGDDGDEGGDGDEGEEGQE

[12] = biological target: T6, Polyadenylate-binding protein 1 (Homo sapiens, UniProt P11940); test: MLLE binding blockers, Cy5 peptide tracer – biochemical, fluorescence polarization, Cy5-PAM2 peptide, secondary, miRNA deadenylation inhibitor project, dose response (AID 602260); assay type: functional; details: read-out: IC50_Mean
T6 sequence (P11940 whole entry): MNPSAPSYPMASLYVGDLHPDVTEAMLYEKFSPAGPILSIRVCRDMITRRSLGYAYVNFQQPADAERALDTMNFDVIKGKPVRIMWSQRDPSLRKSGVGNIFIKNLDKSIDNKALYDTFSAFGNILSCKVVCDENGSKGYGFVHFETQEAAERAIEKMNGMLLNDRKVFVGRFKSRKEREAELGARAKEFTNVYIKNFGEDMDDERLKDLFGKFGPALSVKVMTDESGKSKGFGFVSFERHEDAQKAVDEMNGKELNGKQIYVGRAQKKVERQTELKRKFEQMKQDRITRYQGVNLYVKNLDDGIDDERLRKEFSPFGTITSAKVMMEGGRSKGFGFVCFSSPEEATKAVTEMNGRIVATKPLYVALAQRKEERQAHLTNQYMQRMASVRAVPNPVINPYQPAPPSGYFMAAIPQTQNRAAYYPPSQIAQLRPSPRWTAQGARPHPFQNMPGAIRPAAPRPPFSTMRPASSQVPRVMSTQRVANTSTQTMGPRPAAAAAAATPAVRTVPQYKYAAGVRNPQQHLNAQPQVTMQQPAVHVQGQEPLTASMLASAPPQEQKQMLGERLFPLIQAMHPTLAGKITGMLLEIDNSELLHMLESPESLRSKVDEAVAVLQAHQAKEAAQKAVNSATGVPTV

[13] = viability loss in THP-1 monocytes – THP-1 cells, cytotoxicity control for Vif-APOBEC3G degradation inhibitor project, dose response (AID 1117359); assay type: functional; details: THP-1
[14] = biological target: T6, Polyadenylate-binding protein 1; test: MLLE domain peptide-binding blockers, IC50 – biochemical, fluorescence polarization, FITC-PAM2 peptide, dose response (AID 602259); assay type: functional; details: read-out: IC50_Mean
[15] = HIV-1 Vif–A3G interaction blockers – biochemical, TR-FRET, GST-Vif 1-94, biotin-A3G peptide, dose response retest, primary screen (AID 1117319); assay type: functional;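 also: TR-FRET signal of purified GST-Vif binding a biotinylated A3G peptide; inhibitors lower the FRET signal by blocking Vif and A3G binding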

SMILES: CCC(C)[C@@H](NC(=O)OC(C)(C)C)c1nnc(S(=O)(=O)Cc2cccc(C)c2)o1 (stereo partly specified)
- IC50 [1]: 2.61 µM (active)
- IC50 (Prothrombin): 3.23 µM (active)
- EC50 (Protein RecA): 2.5 µM (active)
- IC50 [2]: 0.826 µM (active)
- AC50 [3]: 2.31 µM (active)
- IC50 [4]: > 49.8 µM (not active)

SMILES: COc1cc(NC(=O)CSc2nc3cc(C)ccc3cc2C)c(C(=O)O)cc1OC
- IC50 (Procathepsin L): > 59.6 µM (not active)
- IC50 (Aspartyl aminopeptidase): > 73.5 µM (not active)
- IC50 (Leucine aminopeptidase): 1.93 µM (active)

SMILES: COc1ccc(/C=C2\SC(=O)N(CCNC(=O)Cn3cnnn3)C2=O)cc1
- EC50 [5]: 0.926 µM (active)
- EC50 [6]: 0.533 µM (active)
- EC50 [7]: 33.3 µM (active)
- EC50 [8]: 2.28 µM (active)
- EC50 (H4): 0.122 µM (active)
- EC50 [9]: 0.405 µM (active)

SMILES: COc1cc(NC(=O)COC(=O)/C=C/c2ccc(Cl)cc2Cl)cc(OC)c1
- IC50 [10]: > 111 µM (not active)
- IC50 [11]: 16.1 µM (not active)

SMILES: O=C(N/C(=C/c1ccc(Br)cc1)c1nc2ccccc2[nH]1)c1ccco1
- IC50 [10]: 111 µM (not active)
- IC50 [11]: 20 µM (not active)

SMILES: Cc1c(O)n(-c2ccc(F)cc2)c(SCC(=O)Nc2ccc3c4c(cccc24)CC3)nc1=O
- IC50 (Procathepsin L): > 59.6 µM (not active)
- IC50 (Aspartyl aminopeptidase): > 73.5 µM (not active)
- IC50 [12]: > 66 µM (inactive)
- CC50 [13]: > 40 µM (active)
- IC50 [14]: > 66 µM (inactive)
- IC50 (Leucine aminopeptidase): 6.36 µM (active)
- IC50 [15]: > 100 µM (active)

SMILES: O=C(N/N=C/c1ccccc1F)c1csc2c1CCCC2
- EC50 [5]: 0.227 µM (active)
- EC50 [6]: 0.264 µM (active)
- EC50 [7]: < 0.1 µM (inconclusive)
- EC50 [8]: < 0.1 µM (active)
- EC50 [9]: 0.323 µM (active)
